Source: publication PMC10254530, “Design and Synthesis of Brefeldin A-Isothiocyanate Derivatives with Selectivity and Their Potential for Cervical Cancer Therapy” (Molecules, 2023)
Structures can show the parent of a compound that is named as a salt.

Tests used:
HeLa cells [1] = test: Annexin V-FITC/PI apoptosis analysis, flow cytometry; type: cell-based, human; conditions: 48 h, control 3.21%
Protocol: According to the manual of Annexin V-FITC/PI Apoptosis Detection Kit KGA105, HeLa cells in 6-well plates were collected by 0.25% trypsin without EDTA (in PBS) digestion after 48 h administration by the above method. After washing with PBS 3 times, 500 μL Binding Buffer was added to suspend HeLa cells. Then Annexin V-FITC and PI were added successively in dark for 15 min, and HeLa cell apoptosis was detected by BD FACSVerse flow cytometer.

HepG2 cells = test: CCK-8 antiproliferative assay, HepG2; type: cell-based; conditions: Homo sapiens, HepG2; CCK-8, 48 h, mean ± SD of three experiments; read-out: IC50 HepG2
Protocol: (§1) All cells were cultured in Dulbecco’s Modified Eagle’s Medium (DMEM) (Burlington, MA, USA) or Roswell Park Memorial Institute (RPMI)-1640 medium containing 10% fetal bovine serum and 1% penicillin/streptomycin in an incubator at 37 °C and 5% CO2. […] Cell suspension with a concentration of 8 × 10^4 cells/mL was prepared after cell counting. 100 μL cell suspension was added to each well of the 96-well plate and then placed in an incubator overnight. Most of the derivatives were configured into 80 mM, 20 mM or 4 mM stock solution in DMSO, and the stock solution concentration of BFA and paclitaxel was 0.4 mM. […] The medium in each well was discarded, and 100 μL of gradient diluted derivative solution was added (the control group was added with serum-free medium).

L-02 cells = test: CCK-8 cytotoxicity assay, normal liver L-02; type: cell-based; conditions: Homo sapiens, L02; CCK-8, 48 h, normal liver cells, mean ± SD of three experiments; read-out: IC50 L-02
Protocol: as §1

HeLa cells [2] = test: Hoechst 33258 staining assay; type: cell-based, human; conditions: HeLa, 0.46, 0.92 and 1.84 µM, 48 h
Protocol: HeLa cells in 6-well plates were collected after administration. According to the manual of Apoptotic Cell Hoechst 33258 Detection Kit KGA211, HeLa cells were fixed with paraformaldehyde for 30 min. After centrifugation, HeLa cells were soaked in PBS for 5 min and washed 3 times. An appropriate amount of Hoechst 33258 staining solution (working concentration 0.5 μg/mL) was added so that fully covers the HeLa cells and then the cells were left at room temperature for 10 min. After dyeing, HeLa cells were soaked in PBS for 5 min and washed 3 times. Observation under an Olympus (Tokyo, Japan) IX73 fluorescence microscope after sealing with an anti-fluorescence quenching sealing solution (glycerol:PBS = 1:9).

HeLa cells [3] = test: Mitochondrial membrane potential analysis, JC-1 staining; type: cell-based, human; conditions: 48 h; for JC-1 quadrant Q1-LL / JC-1 quadrant Q1-UL: control 0.00%; for JC-1 green fluorescent cells (decreased mitochondrial membrane potential), quadrant Q1-LR: control 4.07%; for JC-1 quadrant Q1-UR: control 95.93%
Protocol: Mitochondrial membrane potential was detected by the JC-1 staining method. According to the manual of JC-1 Apoptosis Detection Kit KGA601, HeLa cells in 6-well plates were collected by 0.25% trypsin without EDTA (in PBS) digestion after 48 h administration. The Incubation Buffer was prepared according to the instructions, mixing and preheating to 37 °C. 500 μL 1 × Incubation Buffer was mixed with 1 μL JC-1 (working concentration 10 μg/mL) to suspend HeLa cells and then the cells were incubated for 20 min. Cells were collected by centrifugation at room temperature, washed twice with 1 × Incubation Buffer and then detected by BD FACSVerse flow cytometer.

MDA-MB-231 cells = test: CCK-8 antiproliferative assay, MDA-MB-231; type: cell-based; conditions: Homo sapiens, MDA-MB-231; CCK-8, 48 h, mean ± SD of three experiments; read-out: IC50 MDA-MB-231
Protocol: as §1

A375 cells = test: CCK-8 antiproliferative assay, A375; type: cell-based; conditions: Homo sapiens, A-375; CCK-8, 48 h, mean ± SD of three experiments; read-out: IC50 A375
Protocol: as §1

A549 cells = test: CCK-8 antiproliferative assay, A549; type: cell-based; conditions: Homo sapiens, A549; CCK-8, 48 h, mean ± SD of three experiments; read-out: IC50 A549
Protocol: as §1

HeLa cells [4] = test: Cell cycle analysis, PI staining flow cytometry; type: cell-based, human; conditions: 48 h; for cells in G1 phase: control 33.42%
Protocol: Cell cycle was detected by PI single staining method. Cell suspension with a concentration of 2 × 10^5 cells/mL was prepared after cell counting. 1 mL cell suspension was added to each well of the 6-well plate and then placed in an incubator overnight. The medium in each well was discarded, and 1 mL of gradient diluted derivative solution 6 (0, 0.46, 0.92 and 1.84 µM) was added (the control group was added with serum-free medium). According to the manual of Cell Cycle Detection Kit KGA511, after 48 h, HeLa cells were collected and fixed with 70% ethanol for 2 h. After centrifugation, 100 μL RNase A (working concentration 20 μg/mL) was added and placed in a 37 °C water bath for 30 min. Then 400 μL PI staining (working concentration 50 μg/mL) was added and mixed, centrifugal tube was placed in the dark at 4 °C for 30 min. Red fluorescence at the excitation wavelength of 488 nm was recorded by flow cytometry.

HeLa cells [5] = test: CCK-8 antiproliferative assay, HeLa; type: cell-based, human; conditions: for IC50: Homo sapiens, HeLa, CCK-8, 48 h, mean ± SD of three experiments, read-out: IC50 HeLa; for SIHeLa, selectivity index between L-02 and HeLa: SI = IC50(L-02)/IC50(HeLa)
Protocol: as §1

U87 cells = test system: U87 cells; set-up: method as in PMID 35557894; conditions: glioblastoma multiforme U87 cells in vitro; read-out: IC50, cytotoxic activity against U87 cells; cited from earlier work
[6] = test system: human T lymphoblastoid cell line Jurkat; set-up: method as in PMID 22200402; conditions: 0.5 μM; cited from earlier work

C[C@H]1CCC/C=C/[C@@H]2C[C@H](O)C[C@H]2[C@H](OC(=O)c2ccc(N=C=S)cc2)/C=C/C(=O)O1 [Compound 6, (1R,2E,6S,10E,11aS,13S,14aR)-13-Hydroxy-6-methyl-4-oxo-1,6,7,8,9,11a,12,13,14,14a-decahydro-4H-cyclopenta[f][1]oxacyclotridecin-1-yl 4-isothiocyanatobenzoate]
percentage of cells in the early and late stages of apoptosis (HeLa cells [1]; 0.46 µM): 16.04% | percentage of cells in the early and late stages of apoptosis (HeLa cells [1]; 0.92 µM): 26.41% | percentage of cells in the early and late stages of apoptosis (HeLa cells [1]; 1.84 µM): 39.03% | IC50 (HepG2 cells): 20.8 ± 1.22 µM | IC50 (L-02 cells): > 80 µM | nuclear morphology, Hoechst33258 staining (HeLa cells [2]): nuclear fragmentation | JC-1 quadrant Q1-LL (HeLa cells [3]; 0.46 µM): 0.00% | JC-1 quadrant Q1-UL (HeLa cells [3]; 0.46 µM): 0.00% | JC-1 green fluorescent cells (decreased mitochondrial membrane potential), quadrant Q1-LR (HeLa cells [3]; 0.46 µM): 13.88% | JC-1 quadrant Q1-UR (HeLa cells [3]; 0.46 µM): 86.12% | JC-1 quadrant Q1-LL (HeLa cells [3]; 0.92 µM): 0.00% | JC-1 quadrant Q1-UL (HeLa cells [3]; 0.92 µM): 0.00% | JC-1 green fluorescent cells (decreased mitochondrial membrane potential), quadrant Q1-LR (HeLa cells [3]; 0.92 µM): 24.80% | JC-1 quadrant Q1-UR (HeLa cells [3]; 0.92 µM): 75.20% | JC-1 quadrant Q1-LL (HeLa cells [3]; 1.84 µM): 0.00% | JC-1 quadrant Q1-UL (HeLa cells [3]; 1.84 µM): 0.00% | JC-1 green fluorescent cells (decreased mitochondrial membrane potential), quadrant Q1-LR (HeLa cells [3]; 1.84 µM): 39.69% | JC-1 quadrant Q1-UR (HeLa cells [3]; 1.84 µM): 60.31% | IC50 (MDA-MB-231 cells): 6.83 ± 0.61 µM | IC50 (A375 cells): 3.08 ± 0.43 µM | IC50 (A549 cells): 7.18 ± 0.51 µM | cells in G1 phase (HeLa cells [4]; 0.46 µM): 43.39% | cells in G1 phase (HeLa cells [4]; 0.92 µM): 49.55% | cells in G2 phase (HeLa cells [4]; 1.84 µM, control 22.94%): 12.50% | cells in G1 phase (HeLa cells [4]; 1.84 µM): 60.80% | cells in S phase (HeLa cells [4]; 1.84 µM, control 43.64%): 26.70% | IC50 (HeLa cells [5]): 1.84 ± 0.08 µM

C[C@H]1CCC/C=C/[C@@H]2C[C@H](O)C[C@H]2[C@H](OC(=O)/C=C\C(=O)OCCOCCOC(=O)c2ccc(N=C=S)cc2)/C=C/C(=O)O1 [Compound 9j, (1R,2E,6S,10E,11aS,13S,14aR)-13-Hydroxy-6-methyl-4-oxo-1,6,7,8,9,11a,12,13,14,14a-decahydro-4H-cyclopenta[f][1]oxacyclotridecin-1-yl (2-(2-((4-isothiocyanatobenzoyl)oxy)ethoxy)ethyl) maleate]
IC50 (HepG2 cells): 3.69 ± 0.14 µM | IC50 (L-02 cells): 10.8 ± 0.57 µM | IC50 (MDA-MB-231 cells): 2.27 ± 0.03 µM | IC50 (A375 cells): 1.5 ± 0.05 µM | IC50 (A549 cells): 4.61 ± 0.12 µM | IC50 (HeLa cells [5]): 1.71 ± 0.02 µM | SIHeLa, selectivity index between L-02 and HeLa (HeLa cells [5]): 6.29

C[C@H]1CCC/C=C/[C@@H]2C[C@H](O)C[C@H]2[C@H](OC(=O)/C=C\C(=O)OCCCCCCOC(=O)c2ccc(N=C=S)cc2)/C=C/C(=O)O1 [Compound 9k, (1R,2E,6S,10E,11aS,13S,14aR)-13-Hydroxy-6-methyl-4-oxo-1,6,7,8,9,11a,12,13,14,14a-decahydro-4H-cyclopenta[f][1]oxacyclotridecin-1-yl (6-((4-isothiocyanatobenzoyl)oxy)hexyl) maleate]
IC50 (HepG2 cells): 3.28 ± 0.27 µM | IC50 (L-02 cells): 23.9 ± 1.23 µM | IC50 (MDA-MB-231 cells): 2.61 ± 0.08 µM | IC50 (A375 cells): 7.27 ± 0.57 µM | IC50 (A549 cells): 8.34 ± 0.24 µM | IC50 (HeLa cells [5]): 2.39 ± 0.1 µM

C[C@@H]1CCC2[C@@H](C)[C@@H](OCCCN=C=S)O[C@@H]3O[C@@]4(C)CCC1[C@@]23OO4 (stereo partly shown) [compound B]
IC50 (U87 cells): 7.41 µM

O=C1c2ccc3c4c(ccc(c24)C(=O)N1CCCN=C=S)C(=O)N(CCCN=C=S)C3=O [derivative A]
effect on apoptosis in Jurkat cells [6]: induced apoptosis by activating caspase-8

CC(=O)O[C@H]1C(=O)[C@@]2(C)[C@H]([C@H](OC(=O)c3ccccc3)[C@]3(O)C[C@H](OC(=O)[C@H](O)[C@@H](NC(=O)c4ccccc4)c4ccccc4)C(C)=C1C3(C)C)[C@]1(OC(C)=O)CO[C@@H]1C[C@@H]2O [paclitaxel, reference compound]
IC50 (HepG2 cells): 0.55 ± 0.03 µM | IC50 (L-02 cells): 0.13 µM | IC50 (MDA-MB-231 cells): 0.33 ± 0.03 µM | IC50 (A375 cells): 0.059 ± 0.001 µM | IC50 (A549 cells): 0.014 ± 0.002 µM | IC50 (HeLa cells [5]): 0.034 ± 0.002 µM | SIHeLa, selectivity index between L-02 and HeLa (HeLa cells [5]): 3.82
